In patent publication US20080287396A1, “Phosphonated Fluoroquinolones, Antibacterial Analogs Thereof, and Methods for the Prevention and Treatment of Bone and Joint Infections” (TARGANTA THERAPEUTICA INC., priority 2005, published 2008):
Values after ≈ are worked out from the molar mass of the structure shown. Read-outs that look alike come from different tables or passages of the source.

Tests used:
[1] = test system: S. aureus strains ATCC13709 and RN4220; assay: microbe, parasite or virus in culture; assay type: cell-based; details: Staphylococcus aureus, ATCC13709; CAMHB, 37° C., 18 h; data not shown; read-out: minimum inhibitory concentration (MIC)
Method: Susceptibility of S. aureus strains ATCC13709 and RN4220 to the commercial antibiotics and synthesized compounds was determined by following the guidelines set by the Clinical and Laboratory Standards Institute (formerly the National Committee for Clinical Laboratory Standards) (M26-A). Compounds were diluted two-fold serially in DMSO and transferred to cation-adjusted Mueller Hinton broth (CAMHB; Becton Dickinson). 50 μL of compounds diluted in CAMHB was mixed with 100 μL of bacteria diluted in CAMHB in 96-well microtiter plates. The final number of micro-organisms in the assay was 5×10^5 c.f.u. per mL and the final concentration of DMSO in the assay was 1.25%. Assays were set up in duplicate and incubated at 37° C. for 18 h. The concentration of compound that inhibited visible growth was reported as the minimum inhibitory concentration (MIC).

[2] = Levels of bisphosphonated prodrugs in rat tibia in vivo; details: for half-life: female, CD, tibia (bone); for concentration of prodrug present in bone, in words: single IV bolus (49: 18.8; 52: 15.8; 54: 17.4 mg/kg)
Method: In order to investigate the bone binding and rate of decomposition of bisphosphonated fluoroquinolone prodrugs in vivo, rats were treated with bisphosphonated moxifloxacin prodrug 52 or bisphosphonated gatifloxacin prodrug 49 or 54 and the drug content of their tibiae was analyzed at different time points after injection. Female CD rats (age, 57 to 70 days; n=5/group; Charles River, St-Constant, Canada) were administered a single bolus intravenous (tail vein) dose of compound 49, 52 or 54 (dissolved in 0.85% NaCl) at respectively 18.8 mg/kg (equivalent to 9 mg/kg of 15), 15.8 mg/kg (equivalent to 10 mg/kg of 3) and 17.4 mg/kg (equivalent to 10 mg/kg of 15) of body weight. Animals were humanely sacrificed at specified time points after i.v. dosing to evaluate the levels of 49, 52 or 54 in the bone. Tibiae were recovered by dissection, cleaned from soft tissues, ground using a metal ball mill (Retsch MM301™) and kept at −80° C. before determination of the drug concentration of the bone.
The experimentally obtained ground bone powder was suspended in 5% formic acid in methanol (500 mg/1.6 mL). The mixture was vortexed for 10 min and centrifuged for 10 min at 10 000 g. The resulting pellet was dried, weighed and used for the determination of the amount of bisphosphonated prodrug.
For the dosage of the prodrug in the tibia, the standards, QCs (Quality Controls) and blanks were prepared (in duplicate) as follows: to 20 mg of dry blank tibia powder were added a spiking solution (10 μL) of prodrug and 990 μL of buffer (0.1M tris-HCl, pH 7, 0.15M NaCl); the mixture was vortexed for 10 min (RT), centrifuged for 15 min at 10 000 g (RT), the supernatant discarded and the pellet kept for the cleavage procedure. The range of the standards (6 levels) was from 0.05 to 10 μM and the QC levels were 0.075, 0.75 and 7.5 μM.
To each standard, QC, blank and experimental sample tibia bone pellet (20 mg of dry weight) was added 500 μL 6N NaOH for the cleavage of the prodrug into the drug (moxifloxacin 3 or gatifloxacin 15). After an incubation at 50° C. for 1 hour (for 49) or 2 hours (for 52 and 54), the mixture was acidified with 6N HCl (500 μL) and the internal standard (gatifloxacin 15 for 52 and moxifloxacin 3 for 49 and 54) was added. After a centrifugation of 15 min at 10 000 g (RT), the supernatant was extracted on a Strata™ cartridge (30 mg/l ml), using 100% methanol as the eluent. The eluent was evaporated to dryness under a stream of argon and the dried residue was reconstituted in 200 μL of the mobile phase used in the LC/MS analysis by vortexing for 15 min. After centrifugation for 15 min at 10 000 g, 20 μL of the supernatant was injected into the LC/MS analyser.
The quantity of drug resulting from the cleavage of the prodrug was analyzed on an Agilent 1100™ series LC/MSD trap. The supernatant was injected into a Zorbax™ SB-Aq column (2×30 mm, 3.5μ), using 0.1% formic acid in water: 0.1% formic acid in acetonitrile (85:15) as the mobile phase at a flow rate of 0.3 mL/min. […] The detected ions were determined in single reaction mode (SRM).
For the determination of 52, moxifloxacin 3 was analyzed for m/z 402.2 and the internal standard (gatifloxacin 15) for m/z 376.1→332.1.
For the determination of 49 and 54, gatifloxacin 15 was analyzed for m/z 376.1→332.1 and the internal standard (moxifloxacin 3) was analyzed for m/z 402.2.

Hela cells = assay: Cytotoxicity assay (MTS reduction); assay type: cell-based; details: concentrations up to 100 μM, 18 h, MTS reagent; data not shown
Procedure, shortened: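 HeLa cells (2×10^4 per well) exposed to compound at 100, 50, 25 and 12.5 μM in DMEM with 1% bovine growth serum, 18 h at 37° C., 5% CO2. Growth inhibition read by MTS tetrazolium reduction.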

[3] = rat, single IV bolus (52: 15.8 mg/kg; 54: 17.4 mg/kg), 7-28 days after injection, read-out: half-life of prodrug in bone (tibia) (converted)

Q: Which results are given for `COc1c(N2CCNC(C)C2)c(F)cc2c(=O)c(C(=O)OCC(=O)NC(P(=O)(O)O)P(=O)(O)O)cn(C3CC3)c12` (stereo not shown) [Compound 54, (1,1-Bisphosphonomethylcarbamoyl)methyl 7-(3-methylpiperazin-1-yl)-1-cyclopropyl-6-fluoro-1,4-dihydro-8-methoxy-4-oxoquinoline-3-carboxylate]?
A: MIC [1]: 4 to 16 µg/mL (≈ 6.6 to 26.4 µM); half-life [2, 3]: 21 days; concentration of prodrug present in bone, in words ([2]; rat tibia): high concentrations; cytotoxicity (Hela cells): no signs of any cytotoxicity

Q: Which half-life ([2]; rat tibia, IV bolus 15.8 mg/kg, 5 min to 24 h, read-out: half-life for the accumulation process in bone) does the source give for `COc1c(N2C[C@@H]3CCCN[C@@H]3C2)c(F)cc2c(=O)c(C(=O)OCC(=O)NC(P(=O)(O)O)P(=O)(O)O)cn(C3CC3)c12` [Compound 52, (1,1-Bisphosphonomethylcarbamoyl)methyl 1-cyclopropyl-6-fluoro-1,4-dihydro-7-((4aS,7aS)-octahydropyrrolo[3,4-b]pyridin-6-yl)-8-methoxy-4-oxoquinoline-3-carboxylate] here?
A: < 0.0417 days

Q: And the half-life [2, 3]?
A: 20 days

Q: And the “concentration of prodrug present in bone, in words” value ([2]; rat tibia)?
A: high concentrations
